The values that follow come from patent publication EP3057950B1, “PHENYL LINKED QUINOLINYL MODULATORS OF ROR-GAMMA-T” (Janssen Pharmaceutica NV, priority 2013, dated 2015).

Molecules are shown by their SMILES. Where a name gives a salt, the structure may show the parent alone.

Assay [1] has as its system IL-17 production by CD4 T cells. Description: Human Th17 Assay (IL-17 production by CD4 T cells under Th17 differentiation conditions). Type of assay: cell-based. Particulars: 72 h, 3 days, IL-17 in supernatant. As for the experimental part:
The human Th17 assay tests the effect of RORγt modulatory compounds on IL-17 production by CD4 T cells under conditions which favor Th17 differentiation. Total CD4^+ T cells were isolated from the peripheral blood mononuclear cells (PBMC) of healthy donors using a CD4^+ T cell isolation kit II, following the manufacturer's instructions (Miltenyi Biotec). […] 50 µL of compound at titrated concentrations in DMSO were added into each well at final DMSO concentration at 0.2%. Cells were incubated for 1 hour, then 50 µL of Th17 cell differentiation medium was added to each well. The final concentrations of antibodies and cytokines (R&D Systems) in differentiation medium were: 3x10^6/mL anti-CD3/CD28 beads (prepared using human T cell activation/expansion kit, Miltenyi Biotec), 10 µg/mL anti-IL4, 10 µg/mL anti-IFNγ, 10 ng/mL […], 10 ng/mL IL23, 50 ng/mL IL6, 3 ng/mL TGFβ and 20 U/mL IL2. Cells were cultured at 37 °C and 5% CO2 for 3 days. Supernatants were collected and the accumulated IL-17 in culture was measured by using MULTI-SPOT® Cytokine Plate following manufacture's instruction (Meso Scale Discovery). The plate was read using Sector Imager 6000, and IL-17 concentration was extrapolated from the standard curve. The IC50s were determined by GraphPad.

Assay [2] addresses T1, wild type human RORγt ligand binding domain (RORγt LBD) (Homo sapiens, UniProt P51449).
T1 construct: His-tag (N); TurboTEV protease cleavage site (ENLYFQG) (N); made in house; host or cells: E. coli (pHIS1, modified pET expression vector)
T1 sequence (P51449 269-508 limits assumed): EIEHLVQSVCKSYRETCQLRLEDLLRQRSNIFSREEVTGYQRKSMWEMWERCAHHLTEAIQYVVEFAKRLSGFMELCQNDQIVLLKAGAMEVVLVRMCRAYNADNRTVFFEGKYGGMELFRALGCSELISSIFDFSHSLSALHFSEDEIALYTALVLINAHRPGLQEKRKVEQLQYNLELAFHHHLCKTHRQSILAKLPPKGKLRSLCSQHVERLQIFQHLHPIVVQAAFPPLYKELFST
Description: RORγt ThermoFluor® Assay (thermal shift, binding affinity). Particulars: pH 7.0, estimated from concentration response curves. The method, boiled down:
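Thermal shift assay on 0.065 mg/mL RORγt LBD with 60 µM 1,8-ANS in 100 mM Hepes pH 7.0, 10 mM NaCl, 2.5 mM GSH, 0.002% Tween-20. Heated at 1 °C/min, fluorescence read at 500 nm.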

Assay [3] has as its target T2, wild type human RORγt LBD (Homo sapiens, UniProt P51449).
T2 construct: expressed in transfected cells; host or cells: HEK293T
T2 sequence (P51449 269-508 limits assumed): T1 sequence (P51449 269-508 limits assumed)
Description: RORγt Reporter Assay (GAL4-RORγt LBD luciferase in HEK293T cells). Type of assay: cell-based. Particulars: HEK293T cells; for IC50: compounds for 24 hours, read-out: RORγt reporter Assay, IC50; for inhibition at 6 µM: HEK-293T, read-out: RORγt reporter Assay, % inhibition @ 6 µM, @ 6 µM. The essentials:
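HEK293T cells transiently co-transfected with GAL4-DBD–human RORγt LBD (or AF2 mutant) and GAL4-responsive firefly luciferase reporter; renilla luciferase normalised transfection and viability. Compounds applied 24 h in 5% lipid-reduced FCS; firefly/renilla ratio plotted against concentration.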

A word on the IC50: it is the concentration at which inhibition is half-maximal. Usually Kd stands for the equilibrium constant for the complex coming apart. Usually inhibition stands for how much of the control response was suppressed. Turning to `COc1nc2ccc(C(O)(c3cncn3C)C3CCN(C(C)=O)CC3)cc2c(Cl)c1-c1cccc(C(F)(F)F)c1` (single isomer, unassigned) [Example 1b, 1-(4-((4-Chloro-2-methoxy-3-(3-(trifluoromethyl)phenyl)quinolin-6-yl)(hydroxy)(1-methyl-1H-imidazol-5-yl)methyl)piperidin-1-yl)ethanone], the IC50 in assay [1] (Homo sapiens, CD4+ T) is 0.4 µM; in assay [3] it was 0.16 µM. Moreover, in assay [2], the Kd is 0.13 µM. Moreover, in assay [3], the inhibition at 6 µM turned out to be 89%.

As to `COc1c(-c2ccccc2)c(Cl)nc2ccc(C(O)(c3cnnn3C)c3cnc(C)n3C)cc12` (single isomer, unassigned) [Example 40c, (2-Chloro-4-metboxy-3-phenylquinolin-6-yl)(1,2-dimethyl-1H-imidazol-5-yl)(1-methyl-1H-1,2,3-triazol-5-yl)methanol], 0.21 µM corresponded to half-maximal inhibition in assay [1] (Homo sapiens, CD4+ T) (IC50). In assay [3] (@ 6 µM), the “RORγt reporter Assay, % inhibition @ 6 µM” value was determined as 103%.

Regarding `CON(C)c1nc2ccc(C(O)(c3ccc(C(F)(F)F)nc3)c3cncn3C)cc2c(N(C)OC)c1-c1ccccc1` (centres unmarked) [Example 57, {2,4-Bis[methoxy(methyl)amino]-3-phenylquinolin-6-yl}(1-methyl-1H-imidazol-5-yl)[6-(trifluoromethyl)pyridin-3-yl]methanol], the Kd in assay [2] is 0.58 µM. Moreover, in assay [3], the IC50 was found to be 0.69 µM and the inhibition at 6 µM worked out at 100%.

Consider `CON(C)c1nc2ccc(C(O)(c3ccc(Cl)cc3)c3cncn3C)cc2c(Cl)c1-c1ccccc1` (centres unmarked) [Example 58, {4-Chloro-2-[methoxy(methyl)amino]-3-phenylquinolin-6-yl}(4-chlorophenyl)(1-methyl-1H-imidazol-5-yl)methanol], for which the Kd in assay [2] was 0.22 µM. For the same compound, in assay [3], the half-inhibitory concentration (IC50) turned out to be 0.15 µM and the inhibition at 6 µM is 99%.

Turning to `COc1nc2c(C)cc(C(O)(c3ccc(C(F)(F)F)nc3)c3cncn3C)cc2c(Cl)c1-c1ccc(OC(F)(F)F)cc1` (centres unmarked) [Example 63, (4-Chloro-2-methoxy-8-methyl-3-(4-(trifluoromethoxy)phenyl)quinolin-6-yl)(1-methyl-1H-imidazol-5-yl)(6-(trifluoromethyl)pyridin-3-yl)methanol], the Kd in assay [2] is 0.0093 µM. In addition, in assay [3], the IC50 was over 6 µM and the inhibition at 6 µM stood at 26%.

Regarding `Cn1cncc1C(O)(c1ccc(Cl)cc1)c1ccc2nc(Cl)c(-c3ccccc3)c(Cl)c2c1` (centres unmarked) [Example 65, (4-Chlorophenyl)(2,4-dichloro-3-phenylquinolin-6-yl)(1-methyl-1H-imidazol-5-yl)methanol], half-maximal inhibition in assay [1] (IC50) was put at 1.8 µM.

Consider `Cc1nc(C)c(C(O)(c2ccc3nc(Cl)c(-c4ccccc4)c(Cl)c3c2)c2cncn2C)s1` (centres unmarked) [Example 68, (2,4-Dichloro-3-phenylquinolin-6-yl)(2,4-dimethylthiazol-5-yl)(1-methyl-1H-imidazol-5-yl)methanol], for which 0.02 µM corresponded to half-maximal inhibition in assay [1] (IC50).

For the compound `CN(C)c1nc2ccc(C(c3ccc(Cl)cc3)c3cncn3C)cc2c(Cl)c1-c1ccccc1` (centres unmarked) [Example 71, 4-Chloro-6-((4-chlorophenyl)(1-methyl-1H-imidazol-5-yl)methyl)-N,N-dimethyl-3-phenylquinolin-2-amine], the equilibrium dissociation constant (Kd) in assay [2] was 2.2 µM. In addition, in assay [3], the IC50 stood at 1.4 µM and the inhibition at 6 µM worked out at 84%.

`Cn1cncc1C(c1ccc(Cl)cc1)c1ccc2nc(C#N)c(-c3ccccc3)c(Cl)c2c1` (centres unmarked) [Example 72, 4-Chloro-6-((4-chlorophenyl)(1-methyl-1H-imidazol-5-yl)methyl)-3-phenylquinoline-2-carbonitrile•TFA]: in assay [2], the Kd was 0.89 µM. For the same compound, in assay [3], the 50% inhibitory concentration (IC50) worked out at 0.63 µM and the inhibition at 6 µM came to 100%.

Regarding `OC(c1ccccc1)(c1ccc2nc(Cl)c(-c3ccccc3Cl)c(Cl)c2c1)c1ncco1` (centres unmarked) [Example 74, (2,4-Dichloro-3-(2-chlorophenyl)quinolin-6-yl)(oxazol-2-yl)(phenyl)methanol], in assay [2], the Kd was 11 µM. In assay [3], the IC50 was over 6 µM and the inhibition at 6 µM was 60%.

For the compound `N#Cc1nc2ccc(C(O)(c3ccc(C(F)(F)F)nc3)c3cccc(Cl)c3)cc2cc1-c1ccccc1` (centres unmarked) [Example 75, 6-((3-Chlorophenyl)(hydroxy)(6-(trifluoromethyl)pyridin-3-yl)methyl)-3-phenylquinoline-2-carbonitrile], the Kd in assay [2] was 14 µM. In addition, in assay [3], the concentration for half-maximal inhibition (IC50) turned out to be 2.9 µM and the inhibition at 6 µM was determined as 99%.

As to `N#Cc1nc2ccc(C(O)(c3cccc(Cl)c3)c3ccnc(C(F)(F)F)c3)cc2c(C#N)c1-c1ccccc1` (centres unmarked) [Example 76, 6-((3-Chlorophenyl)(hydroxy)(2-(trifluoromethyl)pyridin4-yl)methyl)-3-phenylquinoline-2,4-dicarbonitrile], the dissociation constant (Kd) in assay [2] is 18 µM. Moreover, in assay [3], the concentration for half-maximal inhibition (IC50) is about 2 µM and the inhibition at 6 µM was determined as 80%.

On to `OC(c1cccc(Cl)c1)(c1ccnc(C(F)(F)F)c1)c1ccc2nc(Cl)c(-c3ccccc3)c(Cl)c2c1` (centres unmarked) [Example 77, (3-Chlorophenyl)(2,4-dichloro-3-phenylquinolin-6-yl)(2-(trifluoromethyl)pyridin-4-yl)methanol], for which the Kd in assay [2] is 12 µM. In assay [3], the half-maximal inhibitory concentration (IC50) is over 6 µM and the inhibition at 6 µM stood at 48%.

As to `CN1CCC(C(O)(c2cccnc2)c2ccc3nc(Cl)c(-c4ccccc4)c(Cl)c3c2)CC1` (centres unmarked) [Example 78, (2,4-Dichloro-3-phenylquinolin-6-yl)(1-methylpiperidin4-yl)(pyridin-3-yl)methanol•TFA], the dissociation constant (Kd) in assay [2] is 14 µM. In assay [3], the 50% inhibitory concentration (IC50) is over 6 µM and the inhibition at 6 µM worked out at 33%.

`CCCCc1c(-c2ccccc2)c(OC(C)C)nc2ccc(C(O)(c3ccncc3)c3cncn3C)cc12` (centres unmarked) [Example 80, (4-Butyl-2-isopropoxy-3-phenylquinolin-6-yl)(1-methyl-1H-imidazol-5-yl)(pyridin4-yl)methanol•TFA]: the Kd in assay [2] is 12 µM. In assay [3], the IC50 is over 6 µM and the inhibition at 6 µM worked out at 72%.

As for `CNCCN(C)c1nc2ccc(C(O)(c3ccncc3)c3cncn3C)cc2c(Cl)c1-c1ccccc1` (centres unmarked) [Example 82], the equilibrium dissociation constant (Kd) in assay [2] was 11 µM. In assay [3], the IC50 was over 6 µM and the inhibition at 6 µM amounted to 18%.

`CN(C)c1nc2ccc(C(O)(c3ccncc3)c3ccccn3)cc2c(Cl)c1-c1ccccc1` (centres unmarked) [Example 84, (4-Chloro-2-(dimethylamino)-3-phenylquinolin-6-yl)(pyridin-2-yl)(pyridin4-yl)methanol•TFA]: the dissociation constant Kd in assay [2] is 17 µM. Also, in assay [3], the IC50 worked out at 3.5 µM and the inhibition at 6 µM stood at 93%.

With `CN(C)c1c(-c2ccccc2)c(Cl)nc2ccc(C(O)(c3ccccn3)c3cncn3C)cc12` (centres unmarked) [Example 85, (2-Chloro-4-(dimethylamino)-3-phenylquinolin-6-yl)(1-methyl-1H-imidazol-5-yl)(pyridin-2-yl)methanol•TFA], the Kd in assay [2] was 20 µM. Moreover, in assay [3], the half-maximal inhibitory concentration (IC50) was determined as 3.5 µM and the inhibition at 6 µM came out at 81%.

As to `Cc1nc(C)c(C(O)(c2ccc(Cl)cc2)c2ccc3nc(Cl)c(-c4ccccc4)c(Cl)c3c2)s1` (centres unmarked) [Example 87, (4-Chlorophenyl)(2,4-dichloro-3-phenylquinolin-6-yl)(2,4-dimethylthiazol-5-yl)methanol], the Kd in assay [2] is 12 µM. For the same compound, in assay [3], the IC50 is over 6 µM and the inhibition at 6 µM came to 56%.

On to `COc1nc2ccc(C(O)(c3ncccn3)c3cncn3C)cc2c(OC)c1-c1ccccc1` (centres unmarked) [Example 88, (2,4-Dimethoxy-3-phenylquinolin-6-yl)(1-methyl-1H-imidazol-5-yl)(pyrimidin-2-yl)methanol], for which the dissociation constant (Kd) in assay [2] is 20 µM. Further, in assay [3], the IC50 was over 6 µM and the inhibition at 6 µM amounted to 32%.

Turning to `OC(c1cccnc1)(c1ccc2nc(Cl)c(-c3ccccc3)c(Cl)c2c1)C1CCNCC1` (centres unmarked) [Example 91, (2,4-Dichloro-3-phenylquinolin-6-yl)(piperidin-4-yl)(pyridin-3-yl)methanol•TFA], in assay [2], the dissociation constant Kd is 21 µM. Also, in assay [3], the concentration for half-maximal inhibition (IC50) is over 6 µM and the inhibition at 6 µM worked out at 0%.
